#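 The concentration for 50% growth inhibition is given as GI50. TGI marks complete inhibition of growth.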
# Tests used:
# Experiment in all cases: DTP human tumour cell line panel, 384-well format
# 786-0 renal = tested on: 786-0 renal
# A498 renal = tested on: A498 renal
# A549 NSCLC = tested on: A549 NSCLC
# ACHN renal = tested on: ACHN renal
# CAKI-1 renal = tested on: CAKI-1 renal
# CCRF-CEM leukemia = tested on: CCRF-CEM leukemia
# COLO 205 colon = tested on: COLO 205 colon
# EKVX NSCLC = tested on: EKVX NSCLC
# HCT-116 colon = tested on: HCT-116 colon
# HCT-15 colon = tested on: HCT-15 colon
# HOP-62 NSCLC = tested on: HOP-62 NSCLC
# HOP-92 NSCLC = tested on: HOP-92 NSCLC
# HS 578T breast = tested on: HS 578T breast
# IGROV1 ovarian = tested on: IGROV1 ovarian
# LOX IMVI melanoma = tested on: LOX IMVI melanoma
# MALME-3M melanoma = tested on: MALME-3M melanoma
# MCF7 breast = tested on: MCF7 breast
# MDA-MB-231 breast = tested on: MDA-MB-231 breast
# MDA-MB-435 melanoma = tested on: MDA-MB-435 melanoma
# MDA-MB-468 breast = tested on: MDA-MB-468 breast
# MOLT-4 leukemia = tested on: MOLT-4 leukemia
# NCI-H226 lung = tested on: NCI-H226 lung
# NCI-H322M lung = tested on: NCI-H322M lung
# NCI-H522 lung = tested on: NCI-H522 lung
# NCI/ADR-RES ovarian = tested on: NCI/ADR-RES ovarian
# OVCAR-3 ovarian = tested on: OVCAR-3 ovarian
# OVCAR-4 ovarian = tested on: OVCAR-4 ovarian
# OVCAR-5 ovarian = tested on: OVCAR-5 ovarian
# OVCAR-8 ovarian = tested on: OVCAR-8 ovarian
# PC-3 prostate = tested on: PC-3 prostate
# RPMI-8226 leukemia = tested on: RPMI-8226 leukemia
# RXF 393 renal = tested on: RXF 393 renal
# SF-268 CNS = tested on: SF-268 CNS
# SF-295 CNS = tested on: SF-295 CNS
# SF-539 CNS = tested on: SF-539 CNS
# SK-MEL-2 melanoma = tested on: SK-MEL-2 melanoma
# SK-MEL-28 melanoma = tested on: SK-MEL-28 melanoma
# SK-MEL-5 melanoma = tested on: SK-MEL-5 melanoma
# SK-OV-3 ovarian = tested on: SK-OV-3 ovarian
# SN12C renal = tested on: SN12C renal
# SNB-75 CNS = tested on: SNB-75 CNS
# SR leukemia = tested on: SR leukemia
# SW-620 colon = tested on: SW-620 colon
# T-47D breast = tested on: T-47D breast
# TK-10 renal = tested on: TK-10 renal
# UACC-257 melanoma = tested on: UACC-257 melanoma
# UACC-62 melanoma = tested on: UACC-62 melanoma
smiles,measurement,setting,value
Cc1[nH]c2ccccc2c1CCNCc1ccc(/C=C/C(=O)NO)cc1,GI50,786-0 renal,21.4 nM
same,TGI,786-0 renal,114 nM
same,GI50,A498 renal,16.6 nM
same,TGI,A498 renal,36 nM
same,GI50,A549 NSCLC,15.6 nM
same,TGI,A549 NSCLC,42.2 nM
same,GI50,ACHN renal,20.3 nM
same,TGI,ACHN renal,53.8 nM
same,GI50,CAKI-1 renal,13.1 nM
same,TGI,CAKI-1 renal,28.6 nM
same,GI50,CCRF-CEM leukemia,< 10 nM
same,TGI,CCRF-CEM leukemia,< 10 nM
same,GI50,COLO 205 colon,12.3 nM
same,TGI,COLO 205 colon,22.7 nM
same,GI50,EKVX NSCLC,42.7 nM
same,TGI,EKVX NSCLC,398 nM
same,GI50,HCT-116 colon,< 10 nM
same,TGI,HCT-116 colon,17.9 nM
same,GI50,HCT-15 colon,51.5 nM
same,TGI,HCT-15 colon,257 nM
same,GI50,HOP-62 NSCLC,13.1 nM
same,TGI,HOP-62 NSCLC,64.4 nM
same,GI50,HOP-92 NSCLC,13.3 nM
same,TGI,HOP-92 NSCLC,32.5 nM
same,GI50,HS 578T breast,11.5 nM
same,TGI,HS 578T breast,24.3 nM
same,GI50,IGROV1 ovarian,10.8 nM
same,TGI,IGROV1 ovarian,26.4 nM
same,GI50,LOX IMVI melanoma,13.1 nM
same,TGI,LOX IMVI melanoma,26.2 nM
same,GI50,MALME-3M melanoma,< 10 nM
same,TGI,MALME-3M melanoma,16.3 nM
same,GI50,MCF7 breast,< 11 nM
same,TGI,MCF7 breast,25.9 nM
same,GI50,MDA-MB-231 breast,12.1 nM
same,TGI,MDA-MB-231 breast,30.5 nM
same,GI50,MDA-MB-435 melanoma,18.1 nM
same,TGI,MDA-MB-435 melanoma,43.4 nM
same,GI50,MDA-MB-468 breast,< 10 nM
same,TGI,MDA-MB-468 breast,17.9 nM
same,GI50,MOLT-4 leukemia,< 10 nM
same,TGI,MOLT-4 leukemia,< 10 nM
same,GI50,NCI-H226 lung,35.9 nM
same,TGI,NCI-H226 lung,133 nM
same,GI50,NCI-H322M lung,13.9 nM
same,TGI,NCI-H322M lung,53.8 nM
same,GI50,NCI-H522 lung,< 10 nM
same,TGI,NCI-H522 lung,18.5 nM
same,GI50,NCI/ADR-RES ovarian,39 nM
same,TGI,NCI/ADR-RES ovarian,181 nM
same,GI50,OVCAR-3 ovarian,16.7 nM
same,TGI,OVCAR-3 ovarian,43.7 nM
same,GI50,OVCAR-4 ovarian,27.5 nM
same,TGI,OVCAR-4 ovarian,60.9 nM
same,GI50,OVCAR-5 ovarian,10.1 nM
same,TGI,OVCAR-5 ovarian,33.7 nM
same,GI50,OVCAR-8 ovarian,< 10 nM
same,TGI,OVCAR-8 ovarian,28.6 nM
same,GI50,PC-3 prostate,14.2 nM
same,TGI,PC-3 prostate,39.9 nM
same,GI50,RPMI-8226 leukemia,< 10 nM
same,TGI,RPMI-8226 leukemia,< 10 nM
same,GI50,RXF 393 renal,< 11.7 nM
same,TGI,RXF 393 renal,18.6 nM
same,GI50,SF-268 CNS,15.2 nM
same,TGI,SF-268 CNS,39.1 nM
same,GI50,SF-295 CNS,18.5 nM
same,TGI,SF-295 CNS,41.3 nM
same,GI50,SF-539 CNS,18.6 nM
same,TGI,SF-539 CNS,86 nM
same,GI50,SK-MEL-2 melanoma,< 10 nM
same,TGI,SK-MEL-2 melanoma,< 10 nM
same,GI50,SK-MEL-28 melanoma,15.3 nM
same,TGI,SK-MEL-28 melanoma,38 nM
same,GI50,SK-MEL-5 melanoma,< 10 nM
same,TGI,SK-MEL-5 melanoma,14 nM
same,GI50,SK-OV-3 ovarian,15.4 nM
same,TGI,SK-OV-3 ovarian,33.3 nM
same,GI50,SN12C renal,18.6 nM
same,TGI,SN12C renal,41.1 nM
same,GI50,SNB-75 CNS,< 12.4 nM
same,TGI,SNB-75 CNS,45.9 nM
same,GI50,SR leukemia,< 10 nM
same,TGI,SR leukemia,< 10 nM
same,GI50,SW-620 colon,12.3 nM
same,TGI,SW-620 colon,25.5 nM
same,GI50,T-47D breast,< 10.9 nM
same,TGI,T-47D breast,21.4 nM
same,GI50,TK-10 renal,17.3 nM
same,TGI,TK-10 renal,55.2 nM
same,GI50,UACC-257 melanoma,< 10.7 nM
same,TGI,UACC-257 melanoma,24.4 nM
same,GI50,UACC-62 melanoma,< 10 nM
same,TGI,UACC-62 melanoma,16.1 nM
